Reference: paper PMC10954694, “Expression of ALS-PFN1 impairs vesicular degradation in iPSC-derived microglia” (Nature Communications, 2024)

What was measured:
profilin-1 (PFN1) M114T = target: T1, profilin-1 (PFN1) M114T (Homo sapiens, UniProt P07737, M114T); assay: […]-1H HSQC NMR titration (global fit); DSF; assay type: binding
T1 construct: recombinant, SUMO tag cleaved, 15N labeled

profilin-1 (PFN1) WT = target: T2, profilin-1 (PFN1) WT (Homo sapiens, UniProt P07737); assay: […]-1H HSQC NMR titration (global fit); DSF; assay type: binding
T2 construct: recombinant, SUMO tag cleaved, 15N labeled
T2 sequence (P07737 2-140): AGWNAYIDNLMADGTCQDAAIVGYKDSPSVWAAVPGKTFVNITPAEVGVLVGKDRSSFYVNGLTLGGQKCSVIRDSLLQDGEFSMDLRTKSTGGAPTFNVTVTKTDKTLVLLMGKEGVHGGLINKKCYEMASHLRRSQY

T1 sequence (P07737 2-140 M114T): as the sequence (P07737 2-140) above, with M113T counted along it

Q: `CCCCCCCC(=O)OC[C@H](COP(=O)(O)O[C@@H]1[C@H](O)[C@H](OP(=O)(O)O)[C@@H](O)[C@H](O)[C@H]1O)OC(=O)CCCCCCC` [PI3P] was tested. Which Kd (profilin-1 (PFN1) M114T) did it give?
A: 0.37 ± 0.03 mM

Q: And the Kd (profilin-1 (PFN1) WT)?
A: 1.88 ± 0.19 mM
